Values quoted from earlier work as cited in patent US20200253951A1, “COMBINATION OF AN […] AGENT WITH […]/OR DO[…] FOR USE IN PREVENTING/STOPPING OF AXIAL MYOPIA IN HUMAN” (priority 2016, published 2020).

Key:
axial myopia = conditions: one drop of 1% Atropine collirium at bedtime, chinese children, placebo controlled
conjunctiva = conditions: pediatric population, atropine 0,1%, 0,05% and 0,01%

SMILES: CN1[C@@H]2CC[C@H]1C[C@@H](OC(=O)C(CO)c1ccccc1)C2 (some centres unmarked) [Atropine]
- subjects in whom development of axial myopia was halted (stopping the elongation of the bulb) (axial myopia): 90%
- subjects who developed ocular redness and itching (conjunctiva): around 5%
